In patent publication US20220362127A1, “BIOENERGETIC COMBINATIONS AND METHODS OF USING SAME” (Conopco, Inc., d/b/a UNILEVER, priority 2019, published 2022):
Marks after values point to notes of the source that are not given here.

Legend:
human keratinocytes [1] = assay: Mitochondrial fragmentation in keratinocytes, UV Study (Example 2), TPEF imaging of NADH, PSD exponent β; assay type: cell-based; details: B3 10 mM, AceMet 500 uM, MeNAM 10 mM alone or 500 uM with B3; for Effect on UV-induced mitochondrial fragmentation in words: UV-exposed; for Mitochondrial Fragmentation (−) UV (3 days) / Mitochondrial Fragmentation (+) UV (4 days): keratinocytes; for Mitochondrial Fragmentation (−) UV (3 days): 3 days before UV exposure, control 1.30; for Mitochondrial Fragmentation (+) UV (4 days): 4 days after UV exposure (4 J/cm^2 UVA+UVB, 14 min daily), UV control 1.58
Procedure: Test compounds (B3, AceMet and MeNAM) were purchased from Sigma (St. Louis, Mo.). Cell culture growth media (Epilife media with calcium (Cat #MEPI500CA) and Epilife media supplement HKGS 100X (Cat #S-001-5)) was purchased from Thermofisher (Waltham, Mass.). Cryopreserved human keratinocytes cells (˜1×10^6 cells) were plated on 12-well glass bottom plates at a confluence of ˜15%. The cells were suspended in primary keratinocyte growth media (Epilife media with calcium) and incubated @ 37° C. for 1d (Day 0). At Day 1, cells began treatment with supplemented primary keratinocyte growth media (Epilife media with calcium supplemented with HKGS 100X; 25 ml total) without test compound (Control sample) or containing test compounds B3 (10 mM), MeNAM (10 mM), AceMet (500 uM), B3 (10 mM)+AceMet (500 uM) or B3 (10 mM)+MeNAM (500 uM). Cell treatment (25 ml media with or without test compounds as above) continued daily for 4 additional days (Non-UV Study—Example 1) or 2 additional days (UV Study—Example 2). For the UV Study, cells were subjected to UV treatment on Day 4 by replacing media with PBS, exposing cells to UV light (4 J/cm^2 of UVA+UVB) for 14 min and feeding cells with media with or without corresponding test compounds as defined above. UV treatments continued daily for 3 additional days (Days 5, 6 and 7). Image acquisition and analysis on all cell wells to assess mitochondrial fragmentation was conducted on Day 1, 3, 5 and 8.
(§1) For two-photon excited fluorescence (TPEF) imaging, cell cultures were placed in microscope-compatible micro-incubator system, which maintained 37° C. within a humidified environment throughout the imaging session.
HEPES buffering agent (Sigma) was added to cell cultures in primary keratinocyte growth medium before imaging, which maintained the pH of cell cultures throughout the imaging session. Images were obtained using a Leica TCS SP8 confocal microscope equipped with a tunable (680-1300 nm) titanium-sapphire laser (InSight Deep See; Spectra Physics; Mountain View, Calif.). Images (1024×1024 pixels; 386×386 μm) were acquired using water-immersion 25×objective (NA 0.95; 2.4 mm working distance), with simultaneous collection by two non-descanned photomultiplier tube (PMT) detectors using a filter cube containing filters from Chroma (Bellows Falls, Vt.), including a 700 nm short pass filter (ET700SP-2P) and a 495 nm dichroic mirror (495DCXR). To isolate NADH fluorescence, a 460(±20) nm emission filter (Chroma, ET460/40M-2P), corresponding to the NADH emission peak, was placed before one of the non-descanned detectors. NADH fluorescence images were acquired from this 460 nm channel using 755 nm excitation. FAD fluorescence was isolated using a 525(±25) nm emission filter (Chroma, ET525/50M-2P) for the other non-descanned detector and 860 nm excitation. The two-photon action cross section of NADH decreases by several orders of magnitude between 755 nm and 860 nm excitation, enabling an efficient isolation of FAD at longer wavelengths. The fluorescence lifetime images (512×512 pixels; 386×386 μm) corresponding to NADH were acquired under the same excitation and emission settings, using SymPho software. PMT gain was adjusted for each image to maximize contrast while preventing a saturated pixel intensity value. The PMT gain and laser power were recorded for each image and used to normalize fluorescence intensity.
To assess mitochondrial fragmentation, a previously established Fourier transform technique was used to obtain power spectral density (PSD) curves from each image. […]

human keratinocytes [2] = assay: Mitochondrial fragmentation in keratinocytes (Non-UV Study, Example 1), TPEF imaging of NADH, PSD exponent β; assay type: cell-based; details: no UV, B3 10 mM
Procedure: Test compounds (B3, AceMet and MeNAM) were purchased from Sigma (St. Louis, Mo.). Cell culture growth media (Epilife media with calcium (Cat #MEPI500CA) and Epilife media supplement HKGS 100X (Cat #S-001-5)) was purchased from Thermofisher (Waltham, Mass.). Cryopreserved human keratinocytes cells (˜1×10^6 cells) were plated on 12-well glass bottom plates at a confluence of ˜15%. The cells were suspended in primary keratinocyte growth media (Epilife media with calcium) and incubated @ 37° C. for 1d (Day 0). […]
as §1
HEPES buffering agent (Sigma) was added to cell cultures in primary keratinocyte growth medium before imaging, which maintained the pH of cell cultures throughout the imaging session. […] To isolate NADH fluorescence, a 460(±20) nm emission filter (Chroma, ET460/40M-2P), corresponding to the NADH emission peak, was placed before one of the non-descanned detectors. NADH fluorescence images were acquired from this 460 nm channel using 755 nm excitation. FAD fluorescence was isolated using a 525(±25) nm emission filter (Chroma, ET525/50M-2P) for the other non-descanned detector and 860 nm excitation. […]

Compound	Effect on mitochondrial fragmentation in words, Non UV-exposed keratinocytes (human keratinocytes [1])	Effect on UV-induced mitochondrial fragmentation in words (human keratinocytes [1])	Mitochondrial Fragmentation (−) UV (3 days) (human keratinocytes [1])	Mitochondrial Fragmentation (+) UV (4 days) (human keratinocytes [1])	Mitochondrial Fragmentation (human keratinocytes [2]; keratinocytes after 5 days exposure, AceMet 500 uM, MeNAM 500 uM, higher value = less protection, control 1.88)	Effect on mitochondrial fragmentation in words (human keratinocytes [2]; keratinocytes, 5 days, AceMet or MeNAM 500 uM)
CSCC[C@H](NC(C)=O)C(=O)O [AceMet, N-acetylmethionine]	does not significantly reduce mitochondrial fragmentation	increases mitochondrial fragmentation beyond UV-exposed levels	1.47^c,e	1.76^c,e,h		
NC(=O)c1cccnc1 [B3, Nicotinamide]	does not significantly reduce mitochondrial fragmentation	effective at reducing this UV-induced effect down to control levels	1.18	1.34 ^d	1.67 ^a	decreases mitochondrial fragmentation
C[n+]1cccc(C(N)=O)c1 [MeNAM, 1-methylnicotinamide chloride]	significantly reduces mitochondrial fragmentation	effective at reducing this UV-induced effect down to control levels	1.15^a	1.29^a,d		
